PubChem BioAssay AID1981 (Southern Research Specialized Biocontainment Screening …, 2009)
Values joined by “and” are separate entries in the source; they are usually repeats but may differ in a detail not shown here. Identical values can stand only once.

test system: S. Typhimurium PhoP-promoter GFP reporter counterscreen, fluorescence, 4 h; test: S. Typhimurium GFP fluorescence dose response in modified counterscreen for PhoP regulon inhibitor project (AID 1981)

Row | Structure (SMILES) | IC50
1 | COc1c(N2CCN[C@H](C)C2)c(F)cc2c(=O)c(C(=O)O)cn(C3CC3)c12 | 0.34 µM
2 | CN1CCN(C(c2ccc(Br)cc2)c2cc(Cl)c3cccnc3c2O)CC1 (stereo not drawn) | 24 µM
3 | NC1=NC[C@H](c2ccccc2)N1CCCCC1CCCCC1 | 66 µM
4 | Oc1c(CN2CCN(c3ccc(F)cc3)CC2)cc(Cl)c2cccnc12 | 32 µM
5 | Cc1ccccc1OCc1n(CC(=O)OC2CC(C)CCC2C(C)C)c2ccccc2[n+]1C (stereo not drawn) | 80.1 µM
6 | Cc1ccc(C(C[N+](=O)[O-])c2c(-c3ccccc3O)[nH][nH]c2=O)cc1 (stereo not drawn) | 39.2 µM
7 | COC(=O)C1C(O)C(C)C(O)C(C)/C=C\C=C(/C)C(=O)Nc2c(C)c(OC(C)=O)c3c(c2O)C(=O)C(C)=C2OCOC(=C23)/C(C)=C/C(C)(O)C(O)C(C)C1O (stereo not drawn) | 23.5 µM
8 | O=S1(=O)N=C(N/N=C/c2ccccn2)c2ccccc21 | 29.1 µM
9 | Oc1c(CN2CCCCC2)cc(COCc2ccccc2)c2cccnc12 | 85.6 µM
10 | O=C(N/N=C/c1c[nH]c2ccccc12)c1cc(-c2ccc3ccccc3c2)n[nH]1 | 68.6 µM
11 | O=C(C[n+]1cc(-c2ccc(Cl)c(Cl)c2)n2c1CCC2)N1c2ccccc2Sc2ccccc21 | 84.7 µM
12 | COc1cccc(N(C(=O)c2ccco2)c2nc(-c3sc(NC(=O)c4ccco4)nc3C)cs2)c1 | 126 µM
13 | CCn1cc(C(=O)O)c(=O)c2cc(F)c(N3CCN(C(=O)Nc4ccccc4)CC3)cc21 | 27.7 µM
14 | CCCCCCCCCCCCCCCC[N+](C)(C)CCN(Cc1ccc(OC)cc1)c1ncccn1 | 24.2 µM
15 | Cc1sc2ncnc(N/N=C/c3ccccc3O)c2c1C | 69.2 µM
16 | O=C(N/N=C/c1cccs1)c1cccs1 | 81.4 µM
17 | Nc1nc(N)c(Cc2ccc(Cl)cc2Cl)c(N)n1 | 149 µM
18 | Oc1ccc(CN2CCN(Cc3ccccc3)CC2)c2cccnc12 | 59.2 µM
19 | C[C@H]1c2cccc(O)c2C(O)=C2C(=O)[C@]3(O)C(O)=C(C(N)=O)C(=O)[C@@H](N(C)C)[C@@H]3[C@@H](O)[C@@H]21 | 1.54 µM
20 | CCCCCCCOC(=O)C[N+](C)(C)CCOC1CC2CCC1(C)C2(C)C (stereo not drawn) | 40.6 µM
21 | ON=C1/C(=N\O)CC2(C/C1=N/O)OCCO2 | 125 µM
22 | CCCCCc1ccc(OCCOCCn2c[n+](C)c3ccccc32)c(CCCCC)c1 | 55 µM

Row | Structure (SMILES) | IC50
23 | CCOC(=O)N1CCN(C(c2cccnc2)c2ccc3cccnc3c2O)CC1 (stereo not drawn) | 57.1 µM
24 | COc1cc(C(=O)Oc2c(CN3CCOCC3)cc(Cl)c3cccnc23)cc(OC)c1OC | 113 µM
25 | CCCCCCCCCCOC(=O)Cn1c(COc2ccc(C)cc2)[n+](C)c2ccccc21 | 25.8 µM
26 | Cc1conc1NC(c1cccs1)c1ccc2cccnc2c1O (stereo not drawn) | 36.8 µM
27 | Cc1c2ccncc2c(C)c2c1[nH]c1ccccc12 | 69.7 µM
28 | Cc1ccc(S(=O)(=O)/N=C2/C=C(Sc3ncn[nH]3)C(=O)c3ccccc32)cc1 | 36.6 µM
29 | CC(C)C(=O)NC(c1cccc([N+](=O)[O-])c1)c1ccc2cccnc2c1O (stereo not drawn) | 23.3 µM
30 | CNc1nc(NCc2ccccc2)c2ccccc2n1 | 96.7 µM
31 | CN1CCN(CCCN2c3ccccc3Sc3ccc(Cl)cc32)CC1 | 148 µM
32 | C[CH2][Hg][S]c1ccccc1C(=O)O | 28.1 µM
33 | O=c1c(O)cccc2cc(O)c(O)c(O)c12 | 18.2 µM
34 | O=C(N/N=C/c1coc2ccc(Cl)cc2c1=O)c1cc(O)cc(O)c1 | 137 µM
35 | O=C(N/N=C/c1ccc([N+](=O)[O-])o1)c1ccc(O)cc1 | 21 µM
36 | CCOC(=O)Cc1csc(NC(=O)NC2(C(F)(F)F)Oc3cc(Cl)c(Cl)cc3O2)n1 | 67.8 µM
37 | C/C(=N\N=C(N)N)c1ccc(Cl)c(Cl)c1 | 92.6 µM
38 | CCn1cc(C(=O)O)c(=O)c2cc(F)c(N3CCN(C(=S)NC(=O)c4ccccc4)CC3)cc21 | 13.8 µM
39 | CN1CCN(c2c(F)cc3c(=O)c(C(=O)O)cn4c3c2OCN4C)CC1 | 0.28 µM
40 | C=CCNc1ncnc2c1[nH]c1ccccc12 | 106 µM
41 | Cc1ccc(Nc2nc(N)c3ccccc3n2)cc1Cl | 74.4 µM
42 | C1=C(CCNCc2ccccc2)CCCC1 | 9.75 µM
43 | OC(c1cc(-c2ccc(C(F)(F)F)cc2)nc(C(F)(F)F)c1)C1CCCCN1 (stereo not drawn) | 42.2 µM
44 | COc1ccc(OCc2n(CC(=O)OC3CC(C)CCC3C(C)C)c3ccccc3[n+]2C)cc1 (stereo not drawn) | 113 µM

Row | Structure (SMILES) | IC50
45 | CC1CCc2cc(F)cc3c(=O)c(C(=O)O)cn1c23 (stereo not drawn) | 13.5 µM
46 | CC(C)(C)CC(C)(C)c1ccc(OCCOCC[N+](C)(C)Cc2ccccc2)cc1 | 47.1 µM
47 | NC(N)=N/N=C/c1ccc(OCc2ccc(Cl)cc2)cc1 | 56.5 µM
48 | c1ccc2c(NC3=NCCS3)cccc2c1 | 112 µM
49 | Fc1ccc(CCNCc2ccc(Cl)c(Cl)c2)cc1 | 109 µM
50 | CCCC(=O)NC(c1ccc(Cl)cc1)c1ccc2cccnc2c1O (stereo not drawn) | 62.3 µM
51 | C[C@H]1COc2c(N3CCN(C)CC3)c(F)cc3c(=O)c(C(=O)O)cn1c23 | < 0.23 µM
52 | COC12C(COC(N)=O)C3=C(C(=O)C(C)=C(N)C3=O)N1CC1C2N1C (stereo not drawn) | 65.8 µM
53 | COC1C(OC(=O)c2ccc(C)[nH]2)C(O)C(Oc2ccc3c(O)c(NC(=O)c4ccc(O)c(CC=C(C)C)c4)c(=O)oc3c2Cl)OC1(C)C (stereo not drawn) | 19.3 µM
54 | c1cnc2c(c1)ccc1cccnc12 | 40 µM
55 | CCn1nc(C(=O)O)c(=O)c2cc3c(cc21)OCO3 | 52.1 µM
56 | Clc1ccc(Cl)c(OCCCCNCc2ccccc2)c1 | 131 µM
57 | CO[C@@]1(NC(=O)C2SC(=C(C(N)=O)C(=O)O)S2)C(=O)N2C(C(=O)O)=C(CSc3nnnn3C)CS[C@@H]21 (stereo partly drawn) | 21.7 µM
58 | Nc1nc2ccccc2n1CCOc1ccccc1Cl | 104 µM
59 | Cc1nnc(N/N=C/c2ccccn2)[nH]c1=O | 21.2 µM
60 | O=C(O)CSc1cc(NS(=O)(=O)c2cccc([N+](=O)[O-])c2)c2ccccc2c1O | 73.2 µM
61 | CCCCCOc1ccc(CSC(=N)N)cc1[N+](=O)[O-] | 86.8 µM
62 | CN(C)CCCNc1cc(C(C)(C)C)nc2c(-c3ccccc3)cnn12 | 83.5 µM
63 | CCCC(=O)NC(c1cccs1)c1cc([N+](=O)[O-])c2cccnc2c1O (stereo not drawn) | 30.1 µM
64 | CCCCCCCCCCCCCCCC[n+]1cccc(C(=O)N(CC)CC)c1 | 29.6 µM
65 | O=Cc1ccc(O)c2ncccc12 | 6.78 µM
66 | CCn1cc(C(=O)NCC(C)C)c(=O)c2cc(F)c(N3CCN(C)CC3)cc21 | 72.6 µM

Row | Structure (SMILES) | IC50
67 | Oc1c(CN2CCOCC2)cc(COCc2ccccc2)c2cccnc12 | 98.2 µM
68 | O=C1OCC(CO)(CO)N=C1NNc1ccc(Cl)c(Cl)c1 | 53.3 µM
69 | CCCCCCCCCCCCCCCCn1cc[n+](CC(C)=O)c1 | 86.1 µM
70 | CC(=O)NC(c1cccc([N+](=O)[O-])c1)c1ccc2cccnc2c1O (stereo not drawn) | 72.5 µM
71 | O=C(Oc1c(Cl)cc(Cl)c2cccnc12)c1ccco1 | 17.3 µM
72 | Cc1ccc(Nc2cc(C)nn2-c2nc(C)cc(=O)[nH]2)cc1 | 12.4 µM
73 | CCc1ccc(-c2nn(-c3ccccc3)cc2CSC(=N)N)cc1 | 40.4 µM
74 | C#CCOCCOCCOCCNc1nc(N2CCN(C(=O)CCCCCCCCCCNC(=O)[C@H](CCCN=C(N)N)n3cc(C[C@@H](C)CC)nn3)CC2)nc(N2CCN(C(=O)CCCCCCCCCCNC(=O)[C@@H]([C@H](C)CC)n3cc(CCCCCN)nn3)CC2)n1 | 41.4 µM
75 | CN(C)S(=O)(=O)c1cccc(NC(=S)N/N=C/c2cc(Br)ccc2O)c1 | 54.7 µM
76 | O=C(c1cccs1)c1no[n+]([O-])c1C(=O)c1cccs1 | 13 µM
77 | Cc1nc2c(=O)n(C)c(=O)nc-2n(C)n1 | 0.6 µM
78 | COc1ccc(CNC[C@@H](CCCCN(C)Cc2ccc(OC)cc2)N2C[C@H](c3ccccc3)N(CCc3ccc(Cl)c(Cl)c3)C(=O)C2=O)cc1 | 108 µM
79 | Oc1ccc(Cl)cc1Cc1cc(Cl)ccc1O | 57 µM
80 | C#CCOCCOCCOCCNc1nc(N2CCN(C(=O)CCCCCCCCCCNC(=O)[C@H](CCCCN)n3cc(C[C@@H](C)CC)nn3)CC2)nc(N2CCN(C(=O)CCCCCCCCCCNC(=O)[C@H](CCCN=C(N)N)n3cc(C[C@@H](C)CC)nn3)CC2)n1 | 140 µM
81 | CC[C@H]1OC(=O)[C@H](C)[C@@H](O[C@H]2C[C@@](C)(OC)[C@@H](O)[C@H](C)O2)[C@H](C)[C@@H](O[C@@H]2O[C@H](C)C[C@H](N(C)C)[C@H]2O)[C@](C)(O)C[C@@H](C)CN(C)[C@H](C)[C@@H](O)[C@]1(C)O | 3.63 µM
82 | CCCCCCCCCCCCCCCC[N+](C)(C)CC | 24.9 µM
83 | CCCCCCNC(=O)c1cn(CC)c2cc(N3CCN(C)CC3)c(F)cc2c1=O | 32 µM
84 | Cc1nc(N)nc(N)c1/C=C/C(C)(C)c1ccc(Cl)cc1 | 12.9 µM
85 | Oc1c(Cl)cc(Cl)c2cccnc12 | 17.9 µM
86 | CCCCOc1ccc(Br)cc1CSC(=N)N | 97.8 µM
87 | Cc1nc(N)c(Cc2ccc(Cl)cc2Cl)c(N)n1 | 86.9 µM
88 | CCCCOc1ccc(Cc2cnc(N)nc2N)cc1 | 81.3 µM

Row | Structure (SMILES) | IC50
89 | O=CN/N=C/c1c(O)ccc2ccccc12 | 59.6 µM
90 | CC(=O)Oc1ccc(C(=O)[C@H]2[C@H]3C(=O)N(c4ccc5ccccc5c4)C(=O)[C@H]3[C@@H]3C=CC=NN32)cc1 | 138 µM
91 | O=C1C(=O)c2ccccc2-c2ccccc21 | 87.3 µM
92 | Nc1ncn(C2O[C@H](CO)[C@@H](O)[C@H]2O)c(=O)n1 (stereo partly drawn) | 13.2 µM
93 | O=C(CSc1ccccn1)N/N=C/c1cc([N+](=O)[O-])ccc1O | 45.6 µM
94 | Clc1cc(Br)ccc1OCCCNCc1ccccc1 | 83.4 µM
95 | NC(=NCCCCCCN=C(N)/N=C(\N)Nc1ccc(Cl)cc1)/N=C(\N)Nc1ccc(Cl)cc1 | 9.12 µM and 9.93 µM and 9.09 µM
96 | Cc1cc(C)c(NC(=O)c2cn3c4c(c(N5CCN(C)CC5)c(F)cc4c2=O)OCC3C)c(C)c1 (stereo not drawn) | 35.1 µM
97 | O=[N+]([O-])c1cc(CN2CCCC2)c2cccnc2c1O | 57.1 µM
98 | CCCCCCCCCC[N+](C)(C)CC/C=C1/c2ccccc2Sc2ccc(Cl)cc21 | 40 µM
99 | Cc1cc(NC(c2cccnc2)c2ccc3cccnc3c2O)no1 (stereo not drawn) | 130 µM
100 | CCC(C)NC(=O)c1cn(CC)c2cc(N3CCN(C)CC3)c(F)cc2c1=O (stereo not drawn) | 59 µM
101 | CCN(CC)c1ccc(/C=N/Nc2nc3ccccc3[nH]2)c(O)c1 | 39.9 µM
102 | O=S(=O)(Nc1cc(Sc2ncn[nH]2)c(O)c2ccccc12)c1ccccc1 | 149 µM
103 | CN(C)C1C(=O)C(C(N)=O)=C(O)C2(O)C(=O)C3=C(O)c4c(O)cccc4C(C)(O)C3C(O)C12 (stereo not drawn) | 1.35 µM
104 | O=c1[nH]c2ccccc2n2c(=S)[nH]nc12 | 29.1 µM
105 | O=C1NN(c2ccccc2)C(=O)/C1=C\c1coc2ccc(O)cc2c1=O | 81.9 µM
106 | CS(=O)(=O)c1ccc([C@@H](O)[C@@H](CF)NC(=O)C(Cl)Cl)cc1 | 7.98 µM
107 | O=C(NC(=S)NNC(=O)c1ccccc1O)c1ccco1 | 41.8 µM
108 | O=C(C[n+]1cc(-c2ccc(Cl)cc2)n2c1CCC2)Nc1nc(-c2ccc(F)cc2)cs1 | 68.2 µM
